Experimental data reported in PubChem BioAssay (NCI).
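In this assay, cells in 96-well plates receive the compound at five concentrations for 48 hours. Endpoints are linearly interpolated between the surrounding concentrations. The concentration for full growth arrest is given as TGI.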

Tests used:
Test in all cases: NCI-60 cell line screen, 48 h
MCF7 breast = test system: MCF7 breast
MALME-3M melanoma = test system: MALME-3M melanoma
UACC-257 melanoma = test system: UACC-257 melanoma
M14 melanoma = test system: M14 melanoma
HOP-62 NSCLC = test system: HOP-62 NSCLC
PC-3 prostate = test system: PC-3 prostate
ACHN renal = test system: ACHN renal
MOLT-4 leukemia = test system: MOLT-4 leukemia
HCT-116 colon = test system: HCT-116 colon
NCI-H460 lung = test system: NCI-H460 lung
UACC-62 melanoma = test system: UACC-62 melanoma
MDA-N = test system: MDA-N
DU-145 prostate = test system: DU-145 prostate
A498 renal = test system: A498 renal
HOP-92 NSCLC = test system: HOP-92 NSCLC

SMILES | TGI (MCF7 breast) | TGI (MALME-3M melanoma) | TGI (UACC-257 melanoma) | TGI (M14 melanoma) | TGI (HOP-62 NSCLC) | TGI (PC-3 prostate) | TGI (ACHN renal) | TGI (MOLT-4 leukemia) | TGI (HCT-116 colon) | TGI (NCI-H460 lung) | TGI (UACC-62 melanoma) | TGI (MDA-N) | TGI (DU-145 prostate) | TGI (A498 renal) | TGI (HOP-92 NSCLC)
COC(=O)CNC(=O)Nc1cc(N2C(=O)ON3C2C(C)(C)N(O)C3(C)C)ccc1C (stereo not drawn) | > 100 µM | > 100 µM | > 100 µM | > 100 µM | > 100 µM | > 100 µM | > 100 µM | > 100 µM | > 100 µM | > 100 µM | > 100 µM | > 100 µM | – | – | –
CC(OCc1ccccc1)C(NC(=O)C1CSSCC(NC(=O)C(Cc2ccccc2)NC(=O)OCc2ccccc2)C(=O)NC(Cc2ccccc2)C(=O)NC(Cc2cn(C=O)c3ccccc23)C(=O)NC(CCCCNC(=O)OCc2ccccc2)C(=O)NC(C(C)OCc2ccccc2)C(=O)N1)C(N)=O (stereo not drawn) | 41.1 µM | > 90.4 µM | > 93 µM | > 79.1 µM | > 100 µM | > 52.4 µM | > 100 µM | > 37.9 µM | 98.7 µM | > 61.8 µM | > 100 µM | > 100 µM | > 100 µM | 63.5 µM | > 100 µM
COc1ccc(-n2c(=O)n(C)c(=O)n2-c2c(C)c(C)c(C)c(C)c2C)cc1 | > 100 µM | > 100 µM | > 100 µM | > 100 µM | > 100 µM | > 100 µM | > 100 µM | > 100 µM | > 100 µM | > 100 µM | > 100 µM | > 100 µM | > 100 µM | > 100 µM | > 100 µM
Cc1cc(C)c2c(c1)C(=O)C1(C2)Cc2c(ccc(C)c2C)C1=O (stereo not drawn) | > 100 µM | > 100 µM | > 100 µM | > 100 µM | – | > 100 µM | > 100 µM | > 100 µM | > 100 µM | > 100 µM | > 100 µM | > 100 µM | > 100 µM | > 100 µM | > 100 µM
N#CC(c1ccccc1)N(CCc1ccccc1)C(=O)Oc1ccccc1 (stereo not drawn) | > 100 µM | > 100 µM | > 100 µM | > 100 µM | > 100 µM | > 100 µM | > 100 µM | > 100 µM | > 100 µM | – | > 100 µM | > 100 µM | > 100 µM | > 100 µM | 95.7 µM
CCOC(=O)CCC(NC(=O)c1ccc(Oc2nc3ccccc3nc2C(=O)OCC)cc1)C(=O)OCC (stereo not drawn) | > 100 µM | – | > 100 µM | > 100 µM | > 100 µM | > 100 µM | > 100 µM | > 100 µM | > 100 µM | > 100 µM | > 100 µM | > 100 µM | > 100 µM | – | > 100 µM
N#CC(c1ccccc1)(c1ccccc1)[C@@H](c1ccccc1)[C@H](Cc1ccccc1)NS(=O)(=O)c1ccccc1 | > 100 µM | > 100 µM | > 100 µM | > 100 µM | > 100 µM | > 100 µM | > 100 µM | > 100 µM | > 100 µM | > 100 µM | > 100 µM | > 100 µM | > 100 µM | > 100 µM | –
CC1(C)S[C@@H]2[C@H](NC(=O)/C=C/c3ccccc3)C(=O)N2[C@H]1C(=O)O | > 100 µM | > 100 µM | > 100 µM | > 100 µM | > 100 µM | > 100 µM | > 100 µM | > 100 µM | > 100 µM | > 100 µM | > 100 µM | > 100 µM | > 100 µM | – | > 100 µM
NC(=O)C(=CN1CC(=O)NC1=S)C(N)=O | > 100 µM | – | > 100 µM | > 100 µM | > 100 µM | – | > 100 µM | > 100 µM | > 100 µM | > 100 µM | > 100 µM | > 100 µM | > 100 µM | > 100 µM | > 100 µM
CCOC(=O)CCc1c(C)[nH]c2c(C)c3c([nH]c4ccc(Cl)cc43)c(C)c2c1=O | 37.7 µM | 37.1 µM | 30.5 µM | 18.5 µM | 48.4 µM | > 100 µM | 28.9 µM | > 100 µM | 38.7 µM | 6.11 µM | – | > 100 µM | > 100 µM | 33 µM | 67.1 µM
CCCCCCCCCC(=O)CC(=O)c1c(O)cc(O)cc1O | > 75 µM | 32.1 µM | 63.4 µM | 39 µM | 32.5 µM | 41.8 µM | > 75 µM | 32.1 µM | > 75 µM | – | – | 38 µM | 57.9 µM | 71.3 µM | 44.7 µM
CN(NC(=O)c1cccs1)C1=NCCN1 | > 100 µM | > 100 µM | > 100 µM | > 100 µM | > 100 µM | > 100 µM | > 100 µM | > 100 µM | > 100 µM | > 100 µM | > 100 µM | > 100 µM | – | > 100 µM | > 100 µM
CN(CC#N)C(=O)Cc1ccc([N+](=O)[O-])cc1 | > 10 µM | > 10 µM | > 10 µM | > 10 µM | > 10 µM | > 10 µM | > 10 µM | > 10 µM | > 10 µM | > 10 µM | > 10 µM | > 10 µM | > 10 µM | > 10 µM | –
CCOC(=O)CC(N1CC1)N1CC1 | > 10 µM | > 10 µM | > 10 µM | > 10 µM | > 10 µM | > 10 µM | > 10 µM | > 10 µM | > 10 µM | > 10 µM | > 10 µM | > 10 µM | > 10 µM | > 10 µM | –
CC1CC(NN(C)C)C2(C(N)=O)C(N)=NC(=O)C12C#N (stereo not drawn) | > 100 µM | > 100 µM | > 100 µM | > 100 µM | > 100 µM | > 100 µM | > 100 µM | > 100 µM | > 100 µM | – | > 100 µM | > 100 µM | > 100 µM | > 100 µM | > 100 µM
COC(=O)/C(=C\C(=O)c1ccc(Br)cc1)NN=C(c1ccccc1)c1ccccc1 | > 10 µM | > 10 µM | > 10 µM | > 10 µM | > 10 µM | > 10 µM | – | > 10 µM | – | – | > 10 µM | > 10 µM | > 10 µM | – | > 10 µM
